Assay results as given in patent US20250177398A1, “CARBONIC ANHYDRASE ENZYMES FOR REGULATING MAST CELL HEMATOPOIESIS AND TYPE 2 INFLAMMATION” (RUTGERS, THE STATE UNIVERSITY OF NEW JERSEY, priority 2015, published 2025).

How the values were obtained:
[1] = tested on: human CD34+ progenitor cells (mast cell development); assay: Human mast cell cultures from blood CD34+ progenitor cells; assay type: cell-based; conditions: human CD34+ cells with SCF, consistent across 5 donors
Description: Blood from healthy human donors was obtained from the New York Blood Center under protocols approved by the Rutgers Institutional Review Boards (IRB). Peripheral blood cells were isolated using a Ficoll gradient. CD34^+ cells were purified using a CD34 MicroBead isolation kit according to the manufacturer's protocol (Miltenyi Biotec, 130-048-702). 25-50×10^3 CD34^+ cells were placed in methocult ([…]) supplemented with stem cell factor (SCF), IL-6 and IL-3 as described previously (Saito, et al., 2006. Nat Protoc 1:2178-2183). Mast cell populations were evaluated on day 14 post-culture.

Trichinella spiralis = Trichinella spiralis infection of mice; assay type: in vivo, mouse; conditions: T. spiralis-infected mice
Description: Methods for maintenance, recovery, infection and isolation of Trichinella larvae were performed as previously described (Urban, et al., 2000. J Immunol 164:2046-2052). Mice were infected with 500 Trichinella muscle larvae by oral gavage and were treated with vehicle (1:5 DMSO to PBS) or 2-3 mg of MZ i.p. daily; mice were sacrificed between 10-11 days post-infection. At necropsy, single cell suspensions of mLNs and spleens were prepared as previously described (Giacomin, et al., 2012. Journal of immunology (Baltimore, Md.: 1950) 189:4371-4378) for basophil and mast cell analysis. Blood was collected and serum was isolated for analysis of Mcpt1 and IgE. Sections (1 cm) of small intestine (jejunum) were collected for real-time PCR and histological analysis. Remaining sections of small intestine were slit lengthwise, rinsed in PBS, and placed in HBSS for 4 hours at 37° C. and adult worms were quantified by microscopic analysis as previously described (Urban, et al., 2000. J Immunol 164:2046-2052). Rag1^−/− mice were injected (i.p.) with a combination of recombinant IL-3 (1 μg) and α-IL-3 antibody (0.5 μg) (BioLegend: clone MP2-8F8) in 200 μl PBS every 3 days for 7-10 days. IL-3C-treated mice were treated with MZ (2 mg) or vehicle (DMSO) every day.
(§1) RNA from sections of small intestine was isolated by homogenization in TRIzol (Invitrogen) followed by phenol-chloroform extraction and isopropanol precipitation. cDNA was generated per standard protocol with Superscript reverse transcriptase (Invitrogen) and used as input for real-time PCR. Real-time data were analyzed using the ΔΔCT method using SYBR Green chemistry (Applied Biosystems) with β-actin serving as the endogenous housekeeping gene. All reactions were run on an ABI 7500 Fast Real-Time PCR System (Applied Biosystems). Samples were normalized to naïve controls. The following QuantiTech primer assays from Qiagen were used: Mcpt1 (QT00157864), IL-4 (QT00160678), IL-9 (QT00107555), Arg1 (QT00134288), Retnla (QT00254359), Car1 (QT01058113) and Car2 (QT00494592).
Single cell suspensions were made from mesenteric, or skin draining lymph nodes. Lymph node cells were cultured in RPMI complete medium and treated with and without anti-CD3 (BD Pharmingen: clone 145-2C11) and anti-CD28 antibodies (BD Pharmingen: clone 37.51) for 72 hours. Standard sandwich ELISA (eBioscience) was performed to measure IL-4 (clones 11B11 and BVD6-24G2), IL-5 (clones TRFK5 and TRFK4) and IL-13 (clones eBio13A and eBio1316H) levels in the cell-free supernatants. Serum quantities of Mcpt1 and IgE were measured by commercial sandwich ELISA kits (BD Biosciences, eBioscience).

[2] = tested on: food allergy-induced mast cell responses; assay: Food allergy-like disease (OVA sensitization and challenge); assay type: in vivo, mouse; conditions: OVA sensitized and challenged mice
Description: as §1, with “Retnla” left out, “(QT00494592). Single cell suspensions were made from mesenteric, or skin draining lymph nodes. Lymph node cells were cultured in RPMI complete medium and treated with and without anti-CD3 (BD Pharmingen: clone 145-2C11) and anti-CD28 antibodies (BD Pharmingen: clone 37.51) for 72 hours. Standard sandwich ELISA (eBioscience) was performed to measure IL-4 (clones 11B11 and BVD6-24G2), IL-5 (clones TRFK5 and TRFK4) and IL-13 (clones eBio13A and eBio1316H) levels in the cell-free supernatants. Serum quantities of Mcpt1 and IgE were measured by commercial sandwich ELISA kits (BD Biosciences, eBioscience). […]” for “(QT00494592).”

CC(=O)/N=c1/sc(S(N)(=O)=O)nn1C [MZ, methazolamide]
percentages of mast cells ([1]; IL-6, IL-3, day 14 (FIGS. 4L-4M)): significantly reduced | total numbers of mast cells ([1]; IL-6, IL-3, day 14 (FIGS. 4L-4N)): significantly reduced | type 2 responses (mLN cell IL-4, IL-5, IL-13; intestinal il4, il9, arg1, retnla; serum IgE) (Trichinella spiralis; 2-3 mg MZ i.p. daily (FIG. 3A-C)): significantly reduced | worms recovered from the intestines (worm burden) (Trichinella spiralis; 2-3 mg MZ i.p. daily (FIG. 3D)): significantly more | infection-induced basophilia (splenic basophils) (Trichinella spiralis; 2-3 mg MZ i.p. daily (FIGS. 2F-2G)): no effect | mast cell responses (mLN mast cells, serum Mcpt1, intestinal mcpt1 expression, intestinal mast cells by histology) (Trichinella spiralis; 2-3 mg MZ i.p. daily, day 10-11 (FIGS. 2A-2E)): significantly reduced | mast cell responses (serum Mcpt1, intestinal mcpt1 expression, intestinal mast cells by histology) ([2]; 2-3 mg MZ i.p. daily (FIG. 4A-D)): significantly decreased | serum IgE levels ([2]; 2-3 mg MZ i.p. daily (FIG. 4E)): significantly increased
